For 27 compounds, IC50 results are on record in US12384789B2, “Compounds for treating Huntington's disease” (PTC Therapeutics, Inc., priority 2017, dated 2025).

In this experiment the test system is Endogenous Huntingtin Protein. As to the kind of experiment: Endogenous Huntingtin Protein Assay (Meso Scale Discovery ELISA-based electrochemiluminescence). It counts as cell-based. The conditions noted are these: MSD electrochemiluminescence, Table 1. Summed up: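 MSD electrochemiluminescence sandwich ELISA: MW1 (expanded polyQ) or MAB2166 capture antibody at 1 μg/mL, samples incubated overnight at 4° C. Detection with rabbit monoclonal #5656S then SULFO-TAG anti-rabbit antibody, each 0.25 μg/mL for 1 h at room temperature.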
(ELISA stands for enzyme-linked immunosorbent assay.)
For `CCN1CCC(c2cc3c(F)cc(-c4cc(F)c5nc(C)cn5c4)cc3nn2)CC1` [Compound 102, 3-(1-ethylpiperidin-4-yl)-5-fluoro-7-(8-fluoro-2-methylimidazo[1,2-a]pyridin-6-yl)cinnoline], the IC50 (usually the concentration that gives 50% inhibition) is not above 100 nM.

As to `Cc1cn2nc(-c3cc(F)c4cc(C5CCNCC5)nnc4c3)cc(CC#N)c2n1` [Compound 187, {6-[5-fluoro-3-(piperidin-4-yl)cinnolin-7-yl]-2-methylimidazo[1,2-b]pyridazin-8-yl}acetonitrile], the IC50 was not above 100 nM.

In turn, `Cc1cn2nc(-c3nnc4cc(C5CCNCC5)cc(F)c4n3)cc(C)c2n1` [Compound 57, 3-(2,8-dimethylimidazo[1,2-b]pyridazin-6-yl)-5-fluoro-7-(piperidin-4-yl)-1,2,4-benzotriazine] yielded an IC50 not above 100 nM.

Regarding `Cn1cc2cc(-c3ccc4cc(N5CCNCC5)ccc4n3)ccc2n1` [Compound 7, 2-(2-methyl-2H-indazol-5-yl)-6-(piperazin-1-yl)quinoline], the IC50 was 1000 to 3000 nM.

The compound `Cc1cc(-c2cc(F)c3cc(C4CCNCC4)nnc3c2)nc2cn(C)nc12` [Compound 162, 7-(2,7-dimethyl-2H-pyrazolo[4,3-b]pyridin-5-yl)-5-fluoro-3-(piperidin-4-yl)cinnoline] yielded an IC50 not above 100 nM.

`Cc1cc(-c2cc3c(F)cc(C4CCNCC4)cc3nn2)cc2cn(C)nc12` [Compound 177, 3-(2,7-dimethyl-2H-indazol-5-yl)-5-fluoro-7-(piperidin-4-yl)cinnoline] had an IC50 not above 100 nM.

Compound `Cc1cn2cc(-c3nnc4cc(C5CCNCC5)cc(F)c4n3)cc(F)c2n1` [Compound 41, 5-fluoro-3-(8-fluoro-2-methylimidazo[1,2-a]pyridin-6-yl)-7-(piperidin-4-yl)-1,2,4-benzotriazine] showed an IC50 of 100 to 500 nM.

`Cc1cc(-c2cc(F)c3cc(C4CCNCC4)nnc3c2)cc2cn(C)nc12` [Compound 73, 7-(2,7-dimethyl-2H-indazol-5-yl)-5-fluoro-3-(piperidin-4-yl)cinnoline] yielded an IC50 not above 100 nM.

For `Cc1nc2c(C)cc(-c3cc(F)c4cc(C5CCNCC5)nnc4c3)cc2s1` [Compound 118, 7-(2,4-dimethyl-1,3-benzothiazol-6-yl)-5-fluoro-3-(piperidin-4-yl)cinnoline], the IC50 was 100 to 500 nM.

For `Cn1cc2cc(-c3cc(F)c4cc(C5CCNCC5)nnc4c3)cc(C#N)c2n1` [Compound 104, 5-[5-fluoro-3-(piperidin-4-yl)cinnolin-7-yl]-2-methyl-2H-indazole-7-carbonitrile], the IC50 is not above 100 nM.

`CCN1CCC(c2cc3c(F)cc(-c4ccc5nc(C)cn5n4)cc3nn2)CC1` [Compound 100, 3-(1-ethylpiperidin-4-yl)-5-fluoro-7-(2-methylimidazo[1,2-b]pyridazin-6-yl)cinnoline] registered an IC50 not above 100 nM.

In turn, `Cc1cc(-c2cc(F)c3nc(N(C)C4CCNCC4)nnc3c2)cc2cn(C)nc12` [Compound 42, 7-(2,7-dimethyl-2H-indazol-5-yl)-5-fluoro-N-methyl-N-(piperidin-4-yl)-1,2,4-benzotriazin-3-amine] came in with an IC50 of 100 to 500 nM.

As to `Cc1cn2nc(-c3cc(F)c4cc(C5CCN(CC(F)F)CC5)nnc4c3)cc(C)c2n1` [Compound 98, 3-[1-(2,2-difluoroethyl)piperidin-4-yl]-7-(2,8-dimethylimidazo[1,2-b]pyridazin-6-yl)-5-fluorocinnoline], the IC50 was in the range of 100 to 500 nM.

For `Cc1cn2nc(-c3cc(F)c4cc(C5CCN(CCF)CC5)nnc4c3)cc(CO)c2n1` [Compound 182, (6-{5-fluoro-3-[1-(2-fluoroethyl)piperidin-4-yl]cinnolin-7-yl}-2-methylimidazo[1,2-b]pyridazin-8-yl)methanol], the IC50 was not above 100 nM.

As to `COc1cc(-c2cc(F)c3nc(C4CCNCC4)ccc3c2)cc2cn(C)nc12` [Compound 49, 8-fluoro-6-(7-methoxy-2-methyl-2H-indazol-5-yl)-2-(piperidin-4-yl)quinoline], the IC50 was not above 100 nM.

With `Cc1cn2cc(-c3cc(F)c4cc(C5CCNCC5)nnc4c3)ccc2n1` [Compound 210, 5-fluoro-7-(2-methylimidazo[1,2-a]pyridin-6-yl)-3-(piperidin-4-yl)cinnoline], the half-inhibitory concentration (IC50) is not above 100 nM.

Take `CCN1CCC(c2nnc3cc(-c4cc(C)c5nc(C)cn5n4)cc(F)c3n2)CC1` [Compound 70, 7-(2,8-dimethylimidazo[1,2-b]pyridazin-6-yl)-3-(1-ethylpiperidin-4-yl)-5-fluoro-1,2,4-benzotriazine]: the IC50 was not above 100 nM.

`CCc1cc(-c2cc(F)c3cc(C4CCN(CC)CC4)nnc3c2)nc2cn(C)nc12` [Compound 174, 7-(7-ethyl-2-methyl-2H-pyrazolo[4,3-b]pyridin-5-yl)-3-(1-ethylpiperidin-4-yl)-5-fluorocinnoline] displayed an IC50 not above 100 nM.

Compound `Cc1cn2nc(-c3cc(F)c4cc(C5CCCN(CCO)CC5)nnc4c3)cc(C)c2n1` (stereo not drawn) [Compound 190, 2-{4-[7-(2,8-dimethylimidazo[1,2-b]pyridazin-6-yl)-5-fluorocinnolin-3-yl]azepan-1-yl}ethan-1-ol] registered an IC50 not above 100 nM.

As to `Cc1cc2oc(-c3cc(F)c4cc(C5C[C@@H](C)N(C)[C@@H](C)C5)nnc4c3)nc2c(C)n1` (stereo partly drawn) [Compound 228, 7-(4,6-dimethyloxazolo[4,5-c]pyridin-2-yl)-5-fluoro-3-((2S,4R,6R)-1,2,6-trimethylpiperidin-4-yl)cinnoline], the IC50 lay in the range of 100 to 500 nM.

For the compound `Cn1cc2cc(-c3cc(F)c4cc(C5CCNCC5)nnc4c3)c(F)cc2n1` [Compound 97, 5-fluoro-7-(6-fluoro-2-methyl-2H-indazol-5-yl)-3-(piperidin-4-yl)cinnoline], the IC50 was 500 to 1000 nM.

Take `Cc1cn2nc(-c3cc(F)c4cc(C5CCN(C)CC5)nnc4c3)cc(C)c2n1` [Compound 79, 7-(2,8-dimethylimidazo[1,2-b]pyridazin-6-yl)-5-fluoro-3-(1-methylpiperidin-4-yl)cinnoline]: the concentration for half-maximal inhibition (IC50) is not above 100 nM.

Take `CCN1[C@H](C)CC(c2cc3c(F)cc(-c4cc(C)c5nc(C)cn5n4)cc3nn2)C[C@H]1C` (stereo partly drawn) [Compound 125, 7-(2,8-dimethylimidazo[1,2-b]pyridazin-6-yl)-3-[(2R,6R)-1-ethyl-2,6-dimethylpiperidin-4-yl]-5-fluorocinnoline]: the IC50 was not above 100 nM.

In the case of `Cn1cc2cc(-c3cc4ccc(C5=CCNCC5)cc4nn3)ccc2n1` [Compound 4, 3-(2-methyl-2H-indazol-5-yl)-7-(1,2,3,6-tetrahydropyridin-4-yl)cinnoline], the IC50 was 500 to 1000 nM.

In turn, `Cc1cn2nc(-c3cc(F)c4cc(C5CCNCC5)nnc4c3)cc(OCCCN(C)C)c2n1` [Compound 139, 3-({6-[5-fluoro-3-(piperidin-4-yl)cinnolin-7-yl]-2-methylimidazo[1,2-b]pyridazin-8-yl}oxy)-N,N-dimethylpropan-1-amine] came in with an IC50 not above 100 nM.

`Cn1cc2cc(-c3cc(F)c4nc(C5CCNCC5)nnc4c3)cc(F)c2n1` [Compound 32, 5-fluoro-7-(7-fluoro-2-methyl-2H-indazol-5-yl)-3-(piperidin-4-yl)-1,2,4-benzotriazine] returned an IC50 not above 100 nM.

Compound `Cn1cc2cc(-c3nnc4cc(C5CCNCC5)ccc4n3)cc(C#N)c2n1` [Compound 26, 2-methyl-5-[7-(piperidin-4-yl)-1,2,4-benzotriazin-3-yl]-2H-indazole-7-carbonitrile] returned an IC50 not above 100 nM.
